Measurements from US11202779B2, “Combinations for the treatment of neoplasms using quiescent cell targeting with EGFR inhibitors” (Felicitex Therapeutics, Inc., priority 2016, dated 2021).
Read-outs that look alike come from different tables or passages of the source. Blank lines part the entries; values can stand above or below the compound they belong to.

Columns and labels:
DYRK1B [1] = conditions: literature value; read-out: inhibits DYRK1B at; cited from earlier work
SW620 cells = test: FACS analysis of cell cycle distribution by DNA content (propidium iodide), SW620; format: cell-based; conditions: 24 hours in FBS− media, AZ191 2.5, 5, 10 μM, Compound I-7 1.25, 2.5, 5 μM
Method: (§1) The SW620 cells were cultured and treated as described in Example 1. For propidium iodide (PI) staining, manufacturer's protocol supplied with the Guava Cell Cycle Reagent for Flow Cytometry (EMD Millipore) was followed. The measurements were performed with Guava PCA-96 flow cytometer (EMD Millipore) using the green laser for excitation at 535 nm and monitoring emission at 617 nm.
as §1, with “cultured, treated,” for “cultured”, “analyzed” for “treated”, “Examples” for “Example”

quiescent cancer cells = conditions: in vitro, literature; cited from earlier work
H1975 cells [2] = test: Cell viability assay in 2D cell culture (CellTiter-Glo), H1975; format: cell-based; conditions: Homo sapiens, NCI-H1975, 96 h
PANC1 cells = test: Cell viability assay in 2D cell culture (CellTiter-Glo), PANC1; format: cell-based; conditions: Homo sapiens, PANC-1, 96 h
A549 cells = test: Cell viability assay in 2D cell culture (CellTiter-Glo), A549; format: cell-based; conditions: Homo sapiens, A549, 96 h
From the text: (§2) The following cell lines were obtained from ATCC and cultured according to the ATCC recommendations: H1975—non-small cell lung cancer cell line harboring L858R and T790M mutations; HCC827—non-small cell lung cancer cell line with E746-A750 deletion in EGFR TK; PC9—non-small cell lung cancer cell line with E746-A750 deletion in EGFR TK; A549—non-small cell lung cancer cell line with wild type EGFR; PANC1—pancreatic cancer cell line; MiaPaCa-2—pancreatic cancer cell line, and SW620—colon cancer cell line. Cell cultures of these lines were seeded into 6-well plates at 3×10^5−6×10^5 cells/well; the plated number of cells depended on cell size and rate of proliferation, aiming for approximately 50% confluency. After seeding, the cells were allowed to attach for 24 hours while incubated at 37° C. in a humidified 5% CO2 atmosphere, and then treated with compounds for desired amount of time (usually 24 hours) incubating under same conditions. Then the cells were harvested by trypsinization, pooled with the floating cells, washed in PBS, and fixed in 70% ice-cold ethanol overnight. For Acridine Orange (AO) staining, fixed cells were washed once with ice-cold PBS, re-suspended in 100 μL PBS, followed by addition of 200 μL of permeabilizing solution and 600 μL AO staining solution.
(§3) For viability analysis, cells were seeded into 96-well plates at 2×10^3-6×10^3 cells/well; depending on cell size and rate of proliferation aiming for approximately 50% confluency. Cells were allowed to attach for 24 hours incubated at 37° C. in a humidified 5% CO2 atmosphere. The treatments were performed using at least 6 different concentrations of a compound in 1:3 serial dilutions. Before reading the results cells were incubated for 96 hours in 5% CO2 incubator at 37° C. Each treatment was performed in triplicate. Results were analyzed by CellTiter-Glo™ Luminescent Cell Viability Assay (Promega, cat. # G7571) according to the manufacturer's instructions using SpectraMAX Gemini Spectrophotometer (Molecular Devices).

PC9 cells = test: Cell viability assay in 2D cell culture (CellTiter-Glo), PC9; format: cell-based; conditions: Homo sapiens, PC-9, 96 h
From the text: as §2, §3

DYRK1B [3] = test: Western blot, DYRK1B expression in H1975 cells; format: cell-based; conditions: 24 hours treatment, compared to untreated cells in FBS+ or FBS− medium
Method: (§4) For Western Blot analysis cells were seeded into 6-well plates at 5×10^5-9×10^5 cells/well (depending on the cell size and rate of proliferation), allowed to attach for 24 hours, then treated with compounds for 24 hours, and harvested. Immunoblotting was performed using conventional techniques, as described in Cell Signaling Technologies Western Blotting protocol (www.cellsignal.com).

[4] = system: phosphorylated Y1068-EGFR; test: Western blot, EGFR phosphorylation in H1975 cells; format: cell-based; conditions: 24 hours treatment
Method: as §4

MiaPaCa-2 cells = test: Cell viability assay in 2D cell culture (CellTiter-Glo), MiaPaCa-2; format: cell-based; conditions: Homo sapiens, MIA PaCa-2, 96 h
From the text: as §2, §3

[5] = system: PC9 human non-small cell lung cancer cells; conditions: exposure of PC9 cells, literature; cited from earlier work
H1975 spheroids = test: Cell viability assay in 3D cell culture (spheroids), H1975; format: cell-based; conditions: Homo sapiens, NCI-H1975, 168 h, seven days
Method: Each treatment was performed in triplicate.
Cells were incubated for 2-3 days (depending on the cell line) at 37° C. in a humidified 5% CO2 atmosphere allowing for tight spheroid formation. For the treatment, 50 μL of media was removed from each well and replaced with fresh media with compounds. […] Before reading the results, cells were incubated for the period of 4-10 days in 5% CO2 incubator at 37° C. If the treatment time exceeded 4 days, […] in each well was replaced with fresh media containing the test compound every fourth day. Each treatment was performed in duplicate. […] Prior to analysis, the spheroids were photographed at 50× magnification.

H1975 cells [6] = test: FACS analysis of cell cycle distribution (Acridine Orange), H1975; format: cell-based; conditions: 24 hours
[7] = EGFR inhibitor alone (Compound I-7 not present)
[8] = EGFR inhibitor alone (Compound I-5 / I-7 not present)
[9] = Compound I-7 present at 2 μM, read-out: EC50
[10] = Compound I-7 present at 4 μM, read-out: EC50
[11] = EGFR inhibitor alone (Compound I-5 / I-7 not present), read-out: EC50
[12] = 18 nM osimertinib with 5 μM Compound I-7, FBS+ or pre-starved

SMILES: COc1cc(N2CCN(C)CC2)ccc1Nc1nccc(-c2cn(C)c3cnccc23)n1 [AZ191]
IC50 (DYRK1B [1]): 0.017 µM
fraction of cells in quiescent state (G0), based on fraction of cells G0+G1 phase (SW620 cells): no decrease in fraction of cells in quiescent state (G0)

SMILES: CCOC(=N)c1nc2ccc3ncnc(Nc4cc(F)c(F)cc4Cl)c3c2s1 [Compound I-7]
fraction of cells in quiescent state (G0), based on fraction of cells G0+G1 phase (SW620 cells): significant decrease in fraction of cells in quiescent state (G0)

SMILES: COc1ncc2cc(C(=O)Nc3cc(C(=O)NCc4cccc(Cl)c4)ccc3Cl)c(=O)[nH]c2n1 [TC-S 7004]
effectiveness against quiescent cancer cells (quiescent cancer cells): effective against quiescent cancer cells in vitro

EC50 (H1975 cells [2]; Compound I-7 present at 2 μM): 0.0252 µM
EC50 (H1975 cells [2]; Compound I-7 present at 4 μM): 0.0082 µM
EC50 (H1975 cells [2]; [7]): 0.0894 µM
EC50 (PANC1 cells; Compound I-7 present at 2 μM): 1.8 µM
EC50 (PANC1 cells; Compound I-7 present at 4 μM): 1.5 µM
EC50 (PANC1 cells; [8]): 1.9 µM
EC50 (A549 cells; Compound I-7 present at 3 μM): 2.6 µM
EC50 (A549 cells; Compound I-7 present at 6 μM): 1 µM
EC50 (A549 cells; [7]): 4.7 µM
EC50 (PC9 cells; Compound I-7 present at 3 μM): 0.0013 µM
EC50 (PC9 cells; Compound I-7 present at 6 μM): 0.0004 µM
EC50 (PC9 cells; [8]): 0.0021 µM
SMILES: CN(C)C/C=C/C(=O)Nc1cc2c(Nc3ccc(F)c(Cl)c3)ncnc2cc1O[C@H]1CCOC1 [afatinib]

EC50 (H1975 cells [2]; Compound I-7 present at 2 μM): 0.0886 µM
EC50 (H1975 cells [2]; Compound I-7 present at 4 μM): 0.0348 µM
EC50 (H1975 cells [2]; [7]): 0.11 µM
EC50 (PANC1 cells; [9]): 9.9 µM
EC50 (PANC1 cells; [10]): 7.1 µM
EC50 (PANC1 cells; [11]): 11.4 µM
SMILES: COc1cc2ncnc(Nc3ccc(F)c(Cl)c3)c2cc1NC(=O)/C=C/CN1CCCCC1 [dacomitinib]
expression of DYRK1B protein (DYRK1B [3]): induced expression of DYRK1B protein similar to or higher than that produced by serum starvation
EGFR phosphorylation (ph-Y1068 EGFR) [4]: suppressed the EGFR phosphorylation

SMILES: C#Cc1cccc(Nc2ncnc3cc(OCCOC)c(OCCOC)cc23)c1 [erlotinib]
EC50 (MiaPaCa-2 cells; Compound I-5 present at 2.5 μM): 6.4 µM
EC50 (MiaPaCa-2 cells; Compound I-5 present at 5 μM): 3.5 µM
EC50 (MiaPaCa-2 cells; erlotinib alone (Compound I-5 not present)): > 30 µM
EC50 (PANC1 cells; Compound I-5 present at 2.5 μM, read-out: EC50): > 30 µM
EC50 (PANC1 cells; Compound I-5 present at 5 μM, read-out: EC50): 14 µM
EC50 (PANC1 cells; [11]): > 30 µM
fraction of cells in G0 (pharmacological quiescence) [5]: significant increase of fraction of cells in G0
EC50 (A549 cells; Compound I-7 present at 3 μM, read-out: EC50): 5.9 µM
EC50 (A549 cells; Compound I-7 present at 6 μM, read-out: EC50): 0.4 µM
EC50 (A549 cells; EGFR inhibitor alone (Compound I-7 not present), read-out: EC50): 10.4 µM
EC50 (PC9 cells; Compound I-5 present at 2 μM): 0.0093 µM
EC50 (PC9 cells; Compound I-5 present at 4 μM): 0.0037 µM
EC50 (PC9 cells; [8]): 0.0173 µM

SMILES: CS(=O)(=O)CCNCc1ccc(-c2ccc3ncnc(Nc4ccc(OCc5cccc(F)c5)c(Cl)c4)c3c2)o1 [lapatinib]
fraction of cells in G0 (pharmacological quiescence) [5]: significant increase of fraction of cells in G0

SMILES: C=CC(=O)Nc1cc(Nc2nccc(-c3cn(C)c4ccccc34)n2)c(OC)cc1N(C)CCN(C)C [osimertinib]
EC50 (H1975 cells [2]; Compound I-7 present at 2 μM): 0.0079 µM
EC50 (H1975 cells [2]; Compound I-7 present at 4 μM): 0.0042 µM
EC50 (H1975 cells [2]; [7]): 0.0087 µM
EC50 (PANC1 cells; [9]): 4.6 µM
EC50 (PANC1 cells; [10]): 4.5 µM
EC50 (PANC1 cells; [11]): 5.3 µM
expression of DYRK1B protein (DYRK1B [3]): induced expression of DYRK1B protein similar to or higher than that produced by serum starvation
EGFR phosphorylation (ph-Y1068 EGFR) [4]: suppressed the EGFR phosphorylation
EC50 (H1975 spheroids; regular growth media (FBS+), Compound I-7 not present): 0.00068 µM
EC50 (H1975 spheroids; regular growth media (FBS+), Compound I-7 present at 2.5 μM): 0.00028 µM
EC50 (H1975 spheroids; serum starvation (FBS−), Compound I-7 not present): 0.0033 µM
EC50 (H1975 spheroids; serum starvation (FBS−), Compound I-7 present at 2.5 μM): 0.001 µM
fraction of cells in quiescent (G0) state (H1975 cells [6]; 18 nM osimertinib alone, pre-incubated in FBS+ or pre-starved in FBS− medium): even more effective than serum starvation (FBS−) at inducing a large fraction of the cells into the quiescent (G0) state
apoptotic cells (sub-G0 population) (H1975 cells [6]; [12]): significant increases in apoptotic cells
fraction of cells in G0 (H1975 cells [6]; [12]): reduced the fraction of cells in G0

EC50 (H1975 cells [2]; Compound I-7 present at 2 μM): 0.0225 µM
EC50 (H1975 cells [2]; Compound I-7 present at 4 μM): 0.0149 µM
EC50 (H1975 cells [2]; [7]): 0.351 µM
EC50 (PANC1 cells; [9]): 9.9 µM
EC50 (PANC1 cells; [10]): 7.1 µM
EC50 (PANC1 cells; [11]): 11.4 µM
SMILES: C=CC(=O)Nc1cccc(Nc2nc(Nc3ccc(N4CCN(C(C)=O)CC4)cc3OC)ncc2C(F)(F)F)c1 [rociletinib]
